# Laboratory results reported in EP0964681B1, “ANTICONVULSANT DERIVATIVES USEFUL IN TREATING PSORIASIS” (Ortho-McNeil Pharmaceutical, Inc., priority 1996, dated 1998).
# Like-named read-outs stand apart in the source and are kept apart here.
# Assays:
# keratinocytes [1] = test: Keratinocyte cell growth induced by EGF and BPE; type: cell-based; details: six days of treatment
# Protocol: In these studies, keratinocytes were grown in Medium154, a low calcium medium supplemented with bovine pituitary extract (BPE), bovine insulin, bovine transferrin, human epidermal growth factor (EGF) and hydrocortisone. Keratinocytes were grown to 60-80% confluence and subcultured by using trypsin/EDTA. Four separate experiments were performed to evaluate the dose-dependent effect of topiramate on keratinocyte cell growth as measured by […] after six days of treatment. Topiramate was dissolved in DMSO to make a 100 mM stock solution. In all experiments the final concentration of DMSO in the cell incubation medium was 0.1%. Vehicle controls (0.1% DMSO) were included in each experiment. Cell growth was induced by a combination of the growth factors EGF and BPE.
# [2] = system: simple and complex partial seizures and secondarily generalized seizures; details: clinical trials; adjunctive therapy or monotherapy; cited from earlier work
# seizures [3] = details: several rodent models of epilepsy; cited from earlier work
# seizures [4] = details: animal model of kindled epilepsy; cited from earlier work
# psoriatic lesions = test: Clinical studies of topiramate in epilepsy; patients who coincidentally had psoriasis; type: in vivo, human; details: reported by at least three epilepsy-trial patients who coincidentally had psoriasis
# Protocol: The activity of the compounds of formula I in treating psoriasis was first evidenced in clinical studies conducted to evaluate the efficacy of topiramate in treating epilepsy. […] Therefore, preclinical in vitro studies were conducted to evaluate the effects of topiramate on keratinocyte function as a putative mechanism of action for its potential beneficial effects in treating psoriasis. One of the hallmarks of psoriatic lesions is hyperproliferative epidermal keratinocytes. In general, agents that affect the proliferation of keratinocytes have an inverse effect on differentiation, i.e. they would inhibit growth and enhance differentiation. Two measures of keratinocyte function were therefore evaluated: cell growth and differentiation.
# keratinocytes [5] = test: Keratinocyte differentiation measured by expression of transglutaminase-1 protein; type: cell-based
# Protocol: In these studies, keratinocytes were grown in Medium154, a low calcium medium supplemented with bovine pituitary extract (BPE), bovine insulin, bovine transferrin, human epidermal growth factor (EGF) and hydrocortisone. Keratinocytes were grown to 60-80% confluence and subcultured by using trypsin/EDTA. The effect of topiramate on keratinocyte differentiation was measured by the expression of transglutaminase-1 protein after three days of treatment. Three separate experiments were performed. Differentiation was evaluated in both low calcium and high calcium incubation conditions. An increase in differentiation would be most readily observed under low calcium conditions whereas an inhibition of differentiation could be detected under conditions of high calcium-induced differentiation. […] A follow-up study was conducted which extended the incubation time to 5 days to look for further enhancement.
structure (smiles),measurement,setting,value
"CC1(C)O[C@@H]2[C@@H](CO[C@@]3(COS(N)(=O)=O)OC(C)(C)O[C@@H]23)O1 [topiramate, 2,3:4,5-bis-O-(1-methylethylidene)-β-D-fructopyranose sulfamate]",Emax at 10 µM,"keratinocytes [1]; Keratinocyte, 144 h, 10 micromolar, growth induced by EGF and BPE, four experiments, not statistically significant (p>0.05), read-out: inhibition of cell growth (maximal response)",32 ± 10%
same,dose dependence of the effect on keratinocyte cell growth,keratinocytes [1]; four experiments,no dose dependence was observed
same,effect on keratinocyte cell growth,"keratinocytes [1]; growth induced by EGF and BPE, 0.1% DMSO",modest inhibitory effect
same,efficacy in treating simple and complex partial seizures and secondarily generalized seizures,[2],effective as adjunctive therapy or as monotherapy
same,block of seizures,seizures [3],effectively block seizures
same,block of seizures,seizures [4],effectively block seizures
same,psoriatic lesions,psoriatic lesions,marked reduction in the psoriatic lesions
same,transglutaminase-1 protein,"keratinocytes [5]; follow-up study, incubation time extended to 5 days",No additional increases
same,transglutaminase-1 protein,"keratinocytes [5]; high calcium incubation conditions, three days of treatment",modest increase
same,transglutaminase-1 protein,"keratinocytes [5]; low calcium incubation conditions, three days of treatment",modest increase
